The values below come from PubChem BioAssay AID1259353.

The test system of this experiment is Trichuris muris adults ex vivo, motility imaging, 24 h. Nature of the experiment: whipworm adult movement reduction ex vivo – whole organism, INVAPP motility imaging, 24 h, dose response (AID 1259353).
Usually EC50 stands for the midpoint of the concentration-response curve. Turning to `COCCNc1nc(NCCOc2ccccc2Cl)c2sccc2n1`, the EC50 was 26 µM. Under `CNc1nc(NCCOc2ccccc2)c2sccc2n1` stands 28 µM; under `COc1ccccc1CNc1nc(NCCOc2ccccc2Cl)c2sccc2n1`, 70 µM; under `CNc1nc(NCCOc2ccccc2Cl)c2sccc2n1`, 44 µM.
